Measurements: the NIST ThermoML archive (doi:10.1021/acs.jced.8b01039)

Experiments:
[1] = xn = mol fraction of the nth substance listed; details: Vibrating wire viscometry
[2] = Vibrating wire viscometry

F/C=C/C(F)(F)F [trans-1,3,3,3-tetrafluoropropene] + FC(F)C(F)(F)F
[1], x2 = 0.4933
Details | viscosity [mPa·s]
252.3 K, 2010 kPa, Liquid | 0.3181
252.3 K, 3020 kPa, Liquid | 0.3224
273.2 K, 1290 kPa, Liquid | 0.2388
273.2 K, 1990 kPa, Liquid | 0.2407
273.2 K, 3010 kPa, Liquid | 0.2451
294.2 K, 1240 kPa, Liquid | 0.1821
294.2 K, 2000 kPa, Liquid | 0.1861
294.2 K, 3010 kPa, Liquid | 0.1906
323.2 K, 960 kPa, Gas | 0.0133
343.2 K, 1060 kPa, Gas | 0.0143
343.2 K, 1770 kPa, Gas | 0.0149
363.2 K, 1960 kPa, Gas | 0.016
363.2 K, 2770 kPa, Gas | 0.0173
383.2 K, 3110 kPa, Gas | 0.0182

FC(F)C(F)(F)F [pentafluoroethane] + CC(F)F
[1], x1 = 0.5
Details | viscosity [mPa·s]
252.1 K, 1020 kPa, Liquid | 0.2923
252.1 K, 2000 kPa, Liquid | 0.2944
252.1 K, 2500 kPa, Liquid | 0.2966
252.1 K, 3000 kPa, Liquid | 0.299
252.1 K, 4000 kPa, Liquid | 0.3024
263.1 K, 1510 kPa, Liquid | 0.2558
263.1 K, 2010 kPa, Liquid | 0.2574
263.1 K, 2510 kPa, Liquid | 0.2593
263.1 K, 3020 kPa, Liquid | 0.2612
263.1 K, 4010 kPa, Liquid | 0.2643
274.5 K, 1510 kPa, Liquid | 0.2181
274.5 K, 2000 kPa, Liquid | 0.2198
274.5 K, 2510 kPa, Liquid | 0.222
274.5 K, 3020 kPa, Liquid | 0.2233
274.5 K, 4010 kPa, Liquid | 0.2261
294.3 K, 1200 kPa, Liquid | 0.1676
294.3 K, 1500 kPa, Liquid | 0.1688
294.3 K, 2000 kPa, Liquid | 0.1704
294.3 K, 3000 kPa, Liquid | 0.1737
294.3 K, 4000 kPa, Liquid | 0.1777
323.2 K, 990 kPa, Gas | 0.0124
343.2 K, 1090 kPa, Gas | 0.0132
343.2 K, 1800 kPa, Gas | 0.014
363.2 K, 2010 kPa, Gas | 0.0147
363.2 K, 2780 kPa, Gas | 0.0157
383.2 K, 3130 kPa, Gas | 0.0165

CC(F)(F)F [1,1,1-trifluoroethane] + C=C(F)C(F)(F)F
[1], x1 = 0.5
Details | viscosity [mPa·s]
252.1 K, 2010 kPa, Liquid | 0.2421
252.1 K, 2520 kPa, Liquid | 0.2439
252.1 K, 3030 kPa, Liquid | 0.2451
273.2 K, 910 kPa, Liquid | 0.1824
273.2 K, 2010 kPa, Liquid | 0.1859
273.2 K, 2500 kPa, Liquid | 0.187
273.2 K, 3000 kPa, Liquid | 0.1888
294.4 K, 1250 kPa, Liquid | 0.1424
294.4 K, 2010 kPa, Liquid | 0.1453
294.4 K, 2510 kPa, Liquid | 0.1469
294.4 K, 3020 kPa, Liquid | 0.1482
323.2 K, 970 kPa, Gas | 0.0124
343.2 K, 1060 kPa, Gas | 0.0133
343.2 K, 1840 kPa, Gas | 0.014
363.2 K, 2040 kPa, Gas | 0.0149
363.2 K, 2750 kPa, Gas | 0.016
383.2 K, 3070 kPa, Gas | 0.0168

F/C=C/C(F)(F)F [trans-1,3,3,3-tetrafluoropropene] + CC(F)(F)F
[1], x2 = 0.5
Details | viscosity [mPa·s]
252.3 K, 1030 kPa, Liquid | 0.2653
252.3 K, 2020 kPa, Liquid | 0.2688
252.3 K, 3090 kPa, Liquid | 0.2721
273.2 K, 1070 kPa, Liquid | 0.2044
273.2 K, 2060 kPa, Liquid | 0.208
273.2 K, 3130 kPa, Liquid | 0.2113
293.2 K, 1130 kPa, Liquid | 0.1573
293.2 K, 2080 kPa, Liquid | 0.1612
293.2 K, 3090 kPa, Liquid | 0.1652
323.2 K, 970 kPa, Gas | 0.0123
346.2 K, 1080 kPa, Gas | 0.0131
346.2 K, 1910 kPa, Gas | 0.0137
363.2 K, 2120 kPa, Gas | 0.0146
363.2 K, 2720 kPa, Gas | 0.0155
383.2 K, 3040 kPa, Gas | 0.0162

F/C=C/C(F)(F)F [trans-1,3,3,3-tetrafluoropropene] + C=C(F)C(F)(F)F
[1], x1 = 0.5
Details | viscosity [mPa·s]
252.3 K, 1000 kPa, Liquid | 0.2935
252.3 K, 2010 kPa, Liquid | 0.2969
252.3 K, 3020 kPa, Liquid | 0.3004
273.2 K, 1000 kPa, Liquid | 0.2271
273.2 K, 1960 kPa, Liquid | 0.2316
273.2 K, 2980 kPa, Liquid | 0.2352
294.2 K, 1010 kPa, Liquid | 0.179
294.2 K, 1980 kPa, Liquid | 0.1824
294.2 K, 3000 kPa, Liquid | 0.1858
348.2 K, 950 kPa, Gas | 0.0132
368.2 K, 1050 kPa, Gas | 0.0139
368.2 K, 1710 kPa, Gas | 0.0148
388.2 K, 1910 kPa, Gas | 0.0156
388.2 K, 2700 kPa, Gas | 0.0168
403.2 K, 3020 kPa, Gas | 0.0175

FC(F)C(F)(F)F [pentafluoroethane]
[2]
Details | viscosity [mPa·s]
273.2 K, 1440 kPa, Liquid | 0.2154
273.2 K, 3260 kPa, Liquid | 0.22
273.2 K, 4880 kPa, Liquid | 0.224
273.2 K, 6650 kPa, Liquid | 0.2283
273.2 K, 8370 kPa, Liquid | 0.2323
273.2 K, 10120 kPa, Liquid | 0.2364
273.2 K, 11770 kPa, Liquid | 0.2403
273.2 K, 13330 kPa, Liquid | 0.2438
293.3 K, 1680 kPa, Liquid | 0.1739
293.3 K, 4160 kPa, Liquid | 0.1801
293.3 K, 6420 kPa, Liquid | 0.1854
293.3 K, 8490 kPa, Liquid | 0.1902
293.3 K, 10920 kPa, Liquid | 0.1952
293.3 K, 13210 kPa, Liquid | 0.2004
293.3 K, 15530 kPa, Liquid | 0.2052
293.3 K, 17700 kPa, Liquid | 0.2097
313.2 K, 1960 kPa, Liquid | 0.14
313.2 K, 3810 kPa, Liquid | 0.1447
313.2 K, 5550 kPa, Liquid | 0.1487
313.2 K, 7210 kPa, Liquid | 0.1525
313.2 K, 9450 kPa, Liquid | 0.1576
313.2 K, 11270 kPa, Liquid | 0.1616
313.2 K, 13140 kPa, Liquid | 0.1653
333.2 K, 630 kPa, Gas | 0.0116
333.2 K, 810 kPa, Gas | 0.0116
333.2 K, 1010 kPa, Gas | 0.0117
333.2 K, 1300 kPa, Gas | 0.0117
